According to publication PMC7308271, “Discovery of a new class of orthosteric antagonists with nanomolar potency at extrasynaptic GABAA receptors” (Scientific Reports, 2020):
Values belong to the compound of their own block, whether it stands above or below them.

Assays:
[1] = system: tonic currents in dentate gyrus granule cells; settings: rat slice recordings, cited from earlier work
[2] = target: T1, human α4β1δ GABAΑ receptor (Homo sapiens, UniProt P18505+P48169); assay: FMP assay at α4β1δ GABAA receptors in HEK cells (screening, concentration-inhibition, Schild analysis); assay type: cell-based; settings: HEK293, read-out: inhibition of the GABA EC80 signal, primary screening, 10 μM, singlicates
T1 construct: expressed in transfected cells; host or cells: δ-HEK (HEK293 Flp-In stably expressing human δ), transiently transfected with α4 and β1 1:1
T1 sequence (P48169 36-554): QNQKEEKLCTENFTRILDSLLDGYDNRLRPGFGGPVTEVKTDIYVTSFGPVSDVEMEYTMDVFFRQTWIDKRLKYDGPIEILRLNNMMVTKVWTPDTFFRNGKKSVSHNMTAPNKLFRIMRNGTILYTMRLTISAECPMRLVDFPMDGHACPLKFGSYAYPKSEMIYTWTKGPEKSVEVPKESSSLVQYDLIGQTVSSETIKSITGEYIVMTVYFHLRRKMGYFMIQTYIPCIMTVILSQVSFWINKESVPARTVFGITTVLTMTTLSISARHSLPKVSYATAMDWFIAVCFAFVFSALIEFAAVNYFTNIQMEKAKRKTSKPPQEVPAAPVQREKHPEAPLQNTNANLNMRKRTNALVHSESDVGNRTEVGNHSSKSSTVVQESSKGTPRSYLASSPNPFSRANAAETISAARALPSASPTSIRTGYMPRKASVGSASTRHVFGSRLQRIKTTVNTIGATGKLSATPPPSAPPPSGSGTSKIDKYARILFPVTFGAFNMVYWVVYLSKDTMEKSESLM
T1 sequence (P18505 26-474): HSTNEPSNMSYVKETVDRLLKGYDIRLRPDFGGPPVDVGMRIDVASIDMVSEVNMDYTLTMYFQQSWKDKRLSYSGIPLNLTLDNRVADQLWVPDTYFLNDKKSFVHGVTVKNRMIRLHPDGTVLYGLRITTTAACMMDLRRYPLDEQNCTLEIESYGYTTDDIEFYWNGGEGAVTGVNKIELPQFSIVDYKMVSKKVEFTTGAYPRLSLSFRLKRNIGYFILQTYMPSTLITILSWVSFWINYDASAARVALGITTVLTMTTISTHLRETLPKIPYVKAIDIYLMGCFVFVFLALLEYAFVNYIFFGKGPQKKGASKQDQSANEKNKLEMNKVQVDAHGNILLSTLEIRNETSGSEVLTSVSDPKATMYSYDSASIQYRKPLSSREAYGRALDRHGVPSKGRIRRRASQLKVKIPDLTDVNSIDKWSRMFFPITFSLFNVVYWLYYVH
T1 sequence (O14764 25-452 partner): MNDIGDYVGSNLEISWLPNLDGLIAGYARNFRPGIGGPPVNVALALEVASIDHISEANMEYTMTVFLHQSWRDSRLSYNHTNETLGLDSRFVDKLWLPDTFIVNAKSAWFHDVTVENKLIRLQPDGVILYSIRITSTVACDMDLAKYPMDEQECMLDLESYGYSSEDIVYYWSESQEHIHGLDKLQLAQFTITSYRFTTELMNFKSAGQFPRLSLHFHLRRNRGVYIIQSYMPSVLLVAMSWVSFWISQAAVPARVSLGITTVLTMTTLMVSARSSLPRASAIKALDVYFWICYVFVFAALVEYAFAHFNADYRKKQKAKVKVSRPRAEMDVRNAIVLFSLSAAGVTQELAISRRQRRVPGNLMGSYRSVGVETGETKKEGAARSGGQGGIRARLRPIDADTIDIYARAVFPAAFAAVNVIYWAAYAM
Text: We have previously established a FLIPR membrane potential (FMP) assay to study recombinant δ-containing GABAΑRs entailing a HEK293 Flp-In cell line stably expressing the human δ-subunit which is suitable for co-transfection with any desired α/β subunits. Initially, we validated the applicability of the FMP assay for efficient compound screening in 96-well microtiter plates using the human α4β1δ GABAΑR heterologously expressed in HEK cells. This receptor was chosen as we have previously shown this system to be reliable in expressing δ-containing receptors. To this end, we determined the Z′-factor, which is a statistical factor used to measure the suitability of an assay for high throughput screening.
Thus, we went on to further characterize 2027 by making a full concentration-inhibition curve.
HEK293 cells were maintained in DMEM containing GlutaMAX-I, supplemented with 10% FBS and 1% penicillin-streptomycin and incubated at 37 °C and a humidity of 5% CO2. For expression of δ-containing GABAΑ receptors, a HEK293 Flp-In^ΤΜ cell line stably expressing the human GABAΑ δ-subunits (referred to as δ-HEK) was used and the γ-containing subtypes was expressed in a background HEK293 Flp-In^ΤΜ cell line stably expressing the G-protein coupled peptide receptor NPBWR2 (referred to as HEK background)[26], both positively selected for using 200 μg/mL hygromycin B. α1β2γ2 receptors were stably expressed in a HEK293 cell line maintained as above but with no selection (gift from Marianne L. Jensen, Neurosearch).
(§1) To express recombinant GABAΑ receptors human α1, α2, α3, α5, α6, β2, γ2 (pcDNA3.1/Zeo) and α4, β1 (pUNIV)[26] subunit cDNA were transiently transfected into either δ-HEK or HEK background cells. δ-HEK cells were transfected with α- and β-subunits in a 1:1 ration whereas HEK background cells were transfected with α-, β- and γ-subunits in a 1:1:2 ratio. Human BGT1 (pcDNA5/FRT)[43] was transiently transfected into the δ-HEK cell line. δ-HEK cells transfected for whole-cell patch-clamp recordings were co-transfected with green fluorescent protein (GFP) as well as α- and β-subunits in a 0.5:1:1 ratio (0.8 μg + 1.6 μg + 1.6 μg in a 6 cm dish) in order to identify transfected cells. The transfection was carried out using Polyfect as transfection reagent according to the manufactures protocol expect for using half the recommended volume of Polyfect.
The FMP assay was performed as previously described with a few modifications. Briefly, HEK cells were transfected as described[26] and 16–20 hours later plated (50,000 cells/well in DMEM medium) into clear-bottomed black 96-well plates coated with poly-D-lysine and the assay performed 20–28 hours later. The assay protocol including the FMP blue dye incorporation into membranes was exactly as described in Falk-Petersen et al.[26]. […] Data was obtained as changes in fluorescence units (∆RFU) by measuring emission at 560 nm caused by excitation at 530 nm. Unless otherwise mentioned in the text or figure legends experiments were performed in at least three independent experiments each using three technical replicates.
Data obtained in the FMP assay are given as relative changes in fluorescence units (ΔRFU) by subtracting the average of the baseline fluorescence signal from the peak fluorescence signal after compound addition. All raw traces were inspected manually and peak signals resulting from compound/buffer addition together with signal artefacts were omitted from the analysis.
The concentration-response curves obtained in the FMP assay for both agonists (determining EC50 values) and antagonists (determining IC50 values) were fitted using the four-parameter concentration-response model: Response=bottom+top−bottom/1+10^[(logEC50-A)⋅nH] EC/IC50 values describe the concentration resulting in the half-maximal response (halfway between top and bottom), and nΗ is the Hill coefficient.

human BGT1 = target: T2, human BGT1 (Homo sapiens, UniProt P48065); assay: Fluorescence interference control: BGT1-mediated GABA uptake in the FMP assay; assay type: cell-based; settings: 110 μM GABA uptake by BGT1 in δ-HEK cells; 2027 at 30, 10, 3 μM
T2 construct: expressed in transfected cells; host or cells: δ-HEK cells, transient transfection (pcDNA5/FRT)
T2 sequence (P48065 1-614): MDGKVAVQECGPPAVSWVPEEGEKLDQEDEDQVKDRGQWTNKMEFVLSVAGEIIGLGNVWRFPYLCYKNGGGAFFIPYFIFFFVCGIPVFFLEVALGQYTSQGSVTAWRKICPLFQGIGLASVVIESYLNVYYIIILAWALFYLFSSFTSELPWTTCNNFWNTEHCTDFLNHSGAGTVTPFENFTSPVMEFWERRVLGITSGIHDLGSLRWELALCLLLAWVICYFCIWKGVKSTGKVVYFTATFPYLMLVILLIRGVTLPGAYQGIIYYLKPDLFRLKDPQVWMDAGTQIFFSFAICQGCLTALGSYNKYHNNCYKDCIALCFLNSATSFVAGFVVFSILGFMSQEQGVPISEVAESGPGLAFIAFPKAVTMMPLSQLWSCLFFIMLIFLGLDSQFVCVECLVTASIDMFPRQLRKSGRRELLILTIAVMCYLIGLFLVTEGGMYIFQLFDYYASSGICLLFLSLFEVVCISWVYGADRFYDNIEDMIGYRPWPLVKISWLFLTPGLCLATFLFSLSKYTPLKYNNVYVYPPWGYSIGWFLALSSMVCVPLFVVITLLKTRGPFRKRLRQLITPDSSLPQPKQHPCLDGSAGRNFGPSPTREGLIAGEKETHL
Text: as §1
assay (perf ormed essentially as previously described in methods section and based on Al-Khawaja et al.).
in d-HEK cells was not decreased/quenched by 2027 in any of the tested concentrations. Data are shown as
means ± SD f rom a representative expe riment perf orme d in triplicate (n=2).
BGT1 expressed in HEK-δ cells

Compound: Oc1noc(C2CCNCC2)c1CCC(c1ccccc1)c1ccccc1 [DPP-4-PIOL]
IC50 ([1]; read-out: IC50 inhibiting tonic currents): 870 pM
potency in inhibiting tonic over phasic currents [1]: approximately 20 times

inhibition at 10 µM [2]: > 50%
Compound: COc1ccccc1NC(=O)C1CCN(Cc2ccco2)CC1 [compound 2100, 1-(furan-2-ylmethyl)-N-(2-methoxyphenyl)piperidine-4-carboxamide]

interference with / quenching of the fluorescence signal (human BGT1): do not interfere
Compound: COc1ccc(-c2ccc(=N)n(CCCC(=O)O)n2)cc1 [Gabazine, reference compound]
